Results taken from ChEMBL document CHEMBL5113373, “Tryptophan derived natural marine alkaloids and synthetic derivatives as promising antimicrobial agents” (Eur J Med Chem, 2021).
In brackets after ≈: the same amount, converted by molar mass.

Assays:
Micrococcus luteus = assay: Antimicrobial activity against Sarcina lutea assessed as microbial growth inhibition; type: functional
Corynebacterium xerosis = assay: Antimicrobial activity against Corynebacterium xerosis assessed as microbial growth inhibition; type: functional
[1] = test system: Mycobacterium tuberculosis; assay: Antibacterial activity against […] assessed as bacterial growth inhibition; type: functional
Staphylococcus aureus [2] = assay: Antibiofilm activity against Staphylococcus aureus ATCC 25923 assessed as inhibition of biofilm formation incubated for 24 hrs by crystal violet method; type: functional, organism-based; conditions: ATCC 25923, 24 h
Pseudomonas aeruginosa [3] = assay: Antibiofilm activity against Pseudomonas aeruginosa assessed as inhibition of biofilm formation incubated for 24 hrs by crystal violet method; type: functional, organism-based
Candida albicans [4] = assay: Antifungal activity against Candida albicans assessed as fungal growth inhibition; type: functional, organism-based
Cryptococcus neoformans = assay: Antifungal activity against Cryptococcus neoformans assessed as fungal growth inhibition; type: functional, organism-based
[5] = test system: Trichophyton mentagrophytes; assay: Antifungal activity against Trichophyton mentagrophytes assessed as fungal growth inhibition; type: functional, organism-based
Aspergillus niger = assay: Antifungal activity against Aspergillus niger assessed as fungal growth inhibition; type: functional, organism-based
Staphylococcus aureus [6] = assay: Antibiofilm activity against Methicillin-resistant Staphylococcus aureus B1 assessed as inhibition of biofilm formation measured after 24 to 48 hrs by MTT assay; type: functional; conditions: time 24-48 hrs
Enterococcus faecalis = assay: Antibiofilm activity against Vancomycin-resistant Enterococcus faecalis W1 assessed as inhibition of biofilm formation measured after 24 to 48 hrs by MTT assay; type: functional; conditions: time 24-48 hrs
Escherichia coli = assay: Antibacterial activity against Escherichia coli assessed as bacterial growth inhibition by agar dilution method; type: functional
Klebsiella aerogenes = assay: Antibacterial activity against Enterobacter aerogenes assessed as bacterial growth inhibition by agar dilution method; type: functional
Vibrio natriegens [7] = assay: Antimicrobial activity against Vibrio natriegens ATCC 14048 assessed as microbial growth inhibition incubated for 48 hrs by spectrophotometry; type: functional
Vibrio natriegens [8] = assay: Antimicrobial activity against Vibrio natriegens ATCC 14048 assessed as inhibition of bacterial adhesion incubated for 48 hrs by crystal staining method; type: functional
Candida albicans [9] = assay: Antifungal activity against Candida albicans ATCC 2091 assessed as fungal growth inhibition incubated for 24 hrs by agar diffusion method; type: functional
Staphylococcus aureus [10] = assay: Antibacterial activity against Staphylococcus aureus ATCC 6538 assessed as bacterial growth inhibition incubated for 24 hrs by agar diffusion method; type: functional
Pseudomonas aeruginosa [11] = assay: Antibacterial activity against Pseudomonas aeruginosa ATCC 9027 assessed as bacterial growth inhibition incubated for 24 hrs by agar diffusion method; type: functional
Candida albicans [12] = assay: Antimicrobial activity against Candida albicans assessed as microbial growth inhibition measured after 24 hrs by agar dilution method; type: functional
Acinetobacter baumannii = assay: Antibacterial activity against Acinetobacter baumannii ATCC 19606 assessed as bacterial growth inhibition incubated for 24 hrs by broth micro dilution method; type: functional
Staphylococcus aureus [13] = assay: Antimicrobial activity against methicillin-resistant Staphylococcus aureus assessed as microbial growth inhibition by broth microdilution method; type: functional
Hepatitis C virus = assay: Antiviral activity against HCV J8CC infected in human Huh7.5 cells assessed as viral growth inhibition incubated for 48 hrs by light microscopy; type: functional, organism-based, Hepacivirus hominis; conditions: Huh7.5, 48 h
Staphylococcus aureus [14] = assay: Antibiofilm activity against Staphylococcus aureus ATCC 6538 assessed as inhibition of biofilm formation incubated for 24 hrs by crystal violet method; type: functional, organism-based; conditions: ATCC 6538, 24 h

## O=C1N=C(C(=O)c2c[nH]c3ccc(Br)cc23)N/C1=C\c1c[nH]c2ccccc12
Micrococcus luteus
  MIC: 36.9 µM (≈ 16 µg/mL)
Corynebacterium xerosis
  MIC: 36.9 µM (≈ 16 µg/mL)

## C=CC(C)(C)c1[nH]c2ccccc2c1/C=c1\[nH]c(=O)c2n(c1=O)CCC=2C1=c2c(=O)[nH]/c(=C\c3c(C(C)(C)C=C)[nH]c4ccccc34)c(=O)n2CC1
[1]
  MIC: 9 µM (≈ 6.24 µg/mL)

## COCCn1cc(-c2nc(-c3cn(C)c4ccccc34)cs2)c2cc(F)ccc21
Staphylococcus aureus [2]
  IC50: 0.4 µM

## Cn1cc(-c2csc(-c3cn(CCN)c4ccc(F)cc34)n2)c2ccccc21
Pseudomonas aeruginosa [3]
  IC50: 9.9 µM

## O=C(O)[C@@H]1Cc2c[nH]c3ccc4oc5nc6ccc(O)cc6c-5c(c4c23)N1
Candida albicans [4]
  IC50: 2.8 µM
Cryptococcus neoformans
  IC50: 11.1 µM

## Oc1ccc2nc3oc4ccc5[nH]cc6cc[nH]c(c-3c2c1)c4c65
Candida albicans [4]
  IC50: 3.2 µM
Cryptococcus neoformans
  IC50: 6.4 µM
[5]
  IC50: 51.1 µM
Aspergillus niger
  IC50: 12.8 µM

## CC(C)[C@@H]1NC(=O)[C@@H](C[C@]2(O)c3ccccc3N3C(=O)[C@@H](C)N[C@H]32)n2c1nc1ccccc1c2=O
Staphylococcus aureus [6]
  BIC: 202.7 µM
Enterococcus faecalis
  BIC: 168.9 µM

## CC(C)[C@H]1NC(=O)[C@@H]2CC3(C45C[C@H]6C(=O)N[C@H](C(C)C)C(=O)N6[C@H]4Nc4ccccc45)c4ccccc4N[C@@H]3N2C1=O (stereo not given in full)
Escherichia coli
  MIC: 44 µM (≈ 25 µg/mL)
Klebsiella aerogenes
  MIC: 44 µM (≈ 25 µg/mL)

## O=C1NC(C(=O)c2c[nH]c3ccc(O)cc23)c2c(O)ccc3[nH]cc(c23)C1=O (stereo not given)
[5]
  IC50: 42.6 µM
Aspergillus niger
  IC50: 21.3 µM

## Cn1cnc(C(=O)c2nc3c4c5c(nccc5c(C(C[N+](C)(C)C)c5c[nH]c6cc(Br)ccc56)c3o2)C=CN4)c1 (stereo not given)
Aspergillus niger
  MIC: 26.8 µM

## C/N=C1\NC(Cc2c[nH]c3cc(Br)ccc23)C(=O)N1C (stereo not given)
Vibrio natriegens [7]
  MIC: 0.03 µM (≈ 0.0101 µg/mL)
Vibrio natriegens [8]
  MIC: 298 µM (≈ 100 µg/mL)

## Cn1cc(C(=O)c2nc(C(=O)O)cc3c2[nH]c2ccc(O)cc23)[n+](C)c1
Candida albicans [4]
  IC50: 45.7 µM
Cryptococcus neoformans
  IC50: 11.4 µM
[5]
  IC50: 45.7 µM
Aspergillus niger
  IC50: 22.8 µM

## NC(=O)c1c(-c2c[nH]c3cc(O)ccc23)ncc2[nH]c3ccc(O)cc3c12
Candida albicans [9]
  diameter of the inhibition zone (DIZ): 9 mm
Staphylococcus aureus [10]
  diameter of the inhibition zone (DIZ): 10 mm
Pseudomonas aeruginosa [11]
  diameter of the inhibition zone (DIZ): 7 mm

## C[N+](C)(C)CC(c1c[nH]c2ccccc12)c1c(O)c(O)c2c3c(nccc13)C=CN2 (stereo not given)
Candida albicans [4]
  IC50: 19.9 µM

## CC(=O)[C@H]1N=C(c2c[nH]c3ccc(O)cc23)c2c(O)ccc3[nH]cc(c23)[C@H]1O
Aspergillus niger
  IC50: 85.2 µM

## O=C1N[C@H]2c3nc4ccccc4c(=O)n3[C@H]1C[C@@]1(O)c3ccccc3N3C(=O)C4(CC4)N2[C@@H]31
Candida albicans [12]
  MIC: 22.6 µM (≈ 9.98 µg/mL)

## C[C@@H]1N[C@H]2N(C1=O)c1ccccc1[C@@]2(O)C[C@H](C(=O)O)n1cnc2ccccc2c1=O
Acinetobacter baumannii
  MIC: 14.9 µM (≈ 6.26 µg/mL)

## O=C(C1=N[C@@H](c2c[nH]c3cc(Br)ccc23)CN1)c1c[nH]c2ccccc12
Staphylococcus aureus [13]
  MIC: 15.4 µM (≈ 6.27 µg/mL)

## COc1ccc2[nH]c3cnc(-c4c[nH]c5cc(O)ccc45)c(C(=O)O)c3c2c1
Candida albicans [9]
  diameter of the inhibition zone (DIZ): 9 mm
Staphylococcus aureus [10]
  diameter of the inhibition zone (DIZ): 10 mm
Pseudomonas aeruginosa [11]
  diameter of the inhibition zone (DIZ): 7 mm

## O=C(c1c[nH]c2ccc(O)cc12)[C@H](O)[C@@H](O)C(=O)c1c[nH]c2ccc(O)cc12
[5]
  IC50: 42.1 µM
Aspergillus niger
  IC50: 21 µM

## Cn1c[n+](C)c(C(=O)c2nc(C(=O)O)cc3c2[nH]c2ccc(O)cc23)c1[S+](C)[O-] (stereo not given)
Candida albicans [4]
  IC50: 4.8 µM

## CC1(C)C(=O)N2c3ccccc3[C@@]3(C[C@H]4n5c(nc6ccccc6c5=O)C(=O)C(C)(C)[C@@]4(O)O3)[C@@H]2N1S(C)(=O)=O
Hepatitis C virus
  EC50: 110 µM

## COCCn1cc(-c2nc(-c3c[nH]c4ccccc34)cs2)c2cc(F)ccc21
Staphylococcus aureus [14]
  IC50: 0.7 µM
